# Experimental data published in patent publication US20010027248A1, “Novel receptor” (SmithKline Beecham p.l.c., priority 1994, published 2001).
# Key:
# novel receptor = assay: Binding of known anticonvulsant compounds to the novel receptor
# Source text: Alternatively, the binding affinities of non-radio-labelled test compounds may be established by measuring the amount of displacement of a radio-labelled compound which is known to bind to the receptor such as compound (A) and (B) and other compounds mentioned or covered by the aforementioned patents or applications, using conventional techniques.
# [1] = target: novel receptor (rat forebrain tissue); assay: Radioligand saturation binding to the novel receptor in rat forebrain tissue homogenate; conditions: calculated from specific binding over a range of radioligand concentrations, read-out: Kd (dissociation constant)
# Experimental: Adult male Wistar rats were killed and brains removed by dissection. Whole forebrain tissue was dissected out and homogenised in a buffered aqueous medium. The homogenised tissue was washed by centrifugation and resuspended in the same buffer. After centrifugation the resuspended tissue was either used fresh or stored frozen for periods of up to 3 months or more before use.
# Aliquot of tissue prepared as above at a concentration of 1-10 mg protein/ml were mixed with aliquots of [^3H]-compound A dissolved in buffered medium ([…] HEPES, pH7.4). The final concentration of [^3H] compound A in the mixture was in the range of 20-50 nM. The mixture was incubated at room temperature for about 1 hour. [^3H]-compound A bound to the tissue was then separated from unbound [^3H]-compound A by filtration. This filtration was through Whatman glass fibre filters (GF/B or GF/C). The filters were then washed rapidly with ice-cold buffered medium (50 mM HEPES, pH7.4). The amount of radioactivity bound to the tissue trapped on the filters was measured by addition of liquid scintillation cocktail filters followed by counting in a liquid scintillation counter. […]
SMILES,binding to the novel receptor (novel receptor),Kd [1]
NC(=O)N1c2ccccc2C=Cc2ccccc21 [carbamazepine],do not bind,
"CC(=O)c1ccc2c(c1)[C@H](NC(=O)c1ccc(F)cc1)[C@@H](O)C(C)(C)O2 [compound A, trans-(+)-6-Acetyl-4S-(4-fluorobenzolamino)-3,4-dihydro-2,2-dimethyl-2H-1-benzopyran-3R-ol]",,40 nM
CN1C(=O)CN=C(c2ccccc2)c2cc(Cl)ccc21 [diazepam],do not bind,
CCC1(C)CC(=O)NC1=O (stereo not drawn) [ethosuximide],do not bind,
NCC1(CC(=O)O)CCCCC1 [gabapentin],do not bind,
Nc1nnc(-c2cccc(Cl)c2Cl)c(N)n1 [lamotrigine],do not bind,
CCCC(C)C1(CC)C(=O)NC(=O)NC1=O (stereo not drawn) [pentobarbitone],do not bind,
O=C1NC(=O)C(c2ccccc2)(c2ccccc2)N1 [phenytoin],do not bind,
C=CC(N)CCC(=O)O (stereo not drawn) [vigabatrin],do not bind,
